Legend:
gelatinase B (MMP-9) = target: T1, gelatinase B (MMP-9) (Homo sapiens, UniProt P14780); assay: In vitro inhibition on gelatinase B (MMP-9), fluorescent synthetic peptide substrate; assay type: biochemical; details: Table 1
T1 construct: purchased Boehringer Manneheim 1758896; host or cells: human blood (natural source)
Protocol: (§1) The present test was accomplished by measuring the fluorescence intensity of a fluorescent material (7-methoxycoumarin-4-acetyl-Pro—Leu—Gly) produced from the cleavage of a fluorescent synthetic peptide substrate ((7-methoxycoumarin-4-acetyl-Pro—Leu—Gly—Leu-β-(2,4-dinitrophenylamino) Ala—Ala—Arg—NH2 (Sigma Chem. Co. U.S.A.)) by gelatinase A (Boehringer Manneheim cat# 1782916, from human fibrosarcoma cells).
(§2) The inhibition rate (%) was calculated from the following equation: [formula]
In vitro Inhibition on Gelatinase B (MMP-9)
In vitro inhibition rate on gelatinase B (MMP-9) was measured in a similar manner as in Example 70, except for employing gelatinase B (Boehringer Manneheim cat# 1758896, from human blood) and the concentration of gelatinase B (final concentration in well: 2.715 nM) and the concentration of the substrate, fluorescent synthetic peptide (final concentration in well: 4.575 uM).

gelatinase A (MMP-2) = target: T2, gelatinase A (MMP-2) (Homo sapiens, UniProt P08253); assay: In vitro inhibition on gelatinase A (MMP-2), fluorescent synthetic peptide substrate; assay type: biochemical; details: Table 1
T2 construct: purchased Boehringer Manneheim 1782916; host or cells: human fibrosarcoma cells (natural source)
T2 sequence (P08253 110-660): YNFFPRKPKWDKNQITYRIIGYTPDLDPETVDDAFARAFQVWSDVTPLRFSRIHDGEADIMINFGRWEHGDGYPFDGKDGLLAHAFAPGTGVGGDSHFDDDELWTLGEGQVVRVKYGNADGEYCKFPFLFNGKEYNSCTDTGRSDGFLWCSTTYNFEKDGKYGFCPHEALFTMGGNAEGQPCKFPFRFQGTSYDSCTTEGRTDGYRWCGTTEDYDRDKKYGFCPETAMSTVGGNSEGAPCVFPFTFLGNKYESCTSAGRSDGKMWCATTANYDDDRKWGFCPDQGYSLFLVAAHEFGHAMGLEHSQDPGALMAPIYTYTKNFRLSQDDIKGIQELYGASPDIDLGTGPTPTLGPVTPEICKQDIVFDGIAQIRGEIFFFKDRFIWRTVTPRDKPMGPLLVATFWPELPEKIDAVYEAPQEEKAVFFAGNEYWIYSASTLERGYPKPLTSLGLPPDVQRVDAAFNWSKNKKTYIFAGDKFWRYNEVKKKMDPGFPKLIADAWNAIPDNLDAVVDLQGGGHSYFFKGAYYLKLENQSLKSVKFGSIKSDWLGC
Protocol: In vitro Inhibition on Gelatinase A (MMP-2)
as §1, §2
A represents fluorescence intensity before the reaction with an inhibitor;
B represents fluorescence intensity after the reaction with an inhibitor;
C represents fluorescence intensity before the reaction without an inhibitor; and,
D represents fluorescence intensity after the reaction without an inhibitor.

T1 sequence (P14780 107-707 limits assumed): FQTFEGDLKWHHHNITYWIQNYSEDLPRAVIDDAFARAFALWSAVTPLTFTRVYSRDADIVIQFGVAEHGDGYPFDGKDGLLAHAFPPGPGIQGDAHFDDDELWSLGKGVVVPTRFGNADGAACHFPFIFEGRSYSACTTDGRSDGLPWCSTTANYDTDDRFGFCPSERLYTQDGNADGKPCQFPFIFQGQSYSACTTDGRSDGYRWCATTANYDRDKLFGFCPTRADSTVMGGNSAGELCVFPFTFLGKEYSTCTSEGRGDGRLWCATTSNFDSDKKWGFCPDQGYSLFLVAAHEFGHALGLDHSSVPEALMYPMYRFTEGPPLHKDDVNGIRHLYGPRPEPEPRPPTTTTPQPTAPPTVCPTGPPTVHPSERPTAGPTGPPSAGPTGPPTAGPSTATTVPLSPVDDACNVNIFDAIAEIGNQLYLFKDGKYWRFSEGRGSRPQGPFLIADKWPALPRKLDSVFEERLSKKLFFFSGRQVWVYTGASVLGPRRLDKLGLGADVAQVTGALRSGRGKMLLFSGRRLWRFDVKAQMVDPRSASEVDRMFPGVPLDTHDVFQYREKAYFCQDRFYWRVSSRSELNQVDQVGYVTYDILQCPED

SMILES | IC50 (gelatinase B (MMP-9)) [nM] | IC50 (gelatinase A (MMP-2)) [nM]
CCCCSc1nc2ccc(S(=O)(=O)N(Cc3ccccc3)[C@@H](C(=O)O)C(C)C)cc2s1 [Number 41] | 700 | 270
CCCCCCCCSc1nc2ccc(S(=O)(=O)N[C@@H](C(=O)O)C(C)C)cc2s1 [Number 55] | 764 | 9
CCCCCCCCSc1nc2ccc(S(=O)(=O)N[C@@H](C(=O)NO)C(C)C)cc2s1 [Number 56] | 3 | 0.5
CCCCCCCCSc1nc2ccc(S(=O)(=O)N(Cc3ccccc3)[C@@H](C(=O)O)C(C)C)cc2s1 [Number 57] | 5120 | 780
CCCCCCCCSc1nc2ccc(S(=O)(=O)N(Cc3ccccc3)[C@@H](C(=O)NO)C(C)C)cc2s1 [Number 58] | 77 | 28
CCCCCCCCCCCCSc1nc2ccc(S(=O)(=O)N[C@@H](C(=O)O)C(C)C)cc2s1 [Number 59] | 4210 | 170
CCCCCCCCCCCCSc1nc2ccc(S(=O)(=O)N[C@@H](C(=O)NO)C(C)C)cc2s1 [Number 60] | 77 | 17
CCCCCCCCCCCCSc1nc2ccc(S(=O)(=O)N(Cc3ccccc3)[C@@H](C(=O)O)C(C)C)cc2s1 [Number 61] | 59600 | 23400
CCCCCCCCCCCCSc1nc2ccc(S(=O)(=O)N(Cc3ccccc3)[C@@H](C(=O)NO)C(C)C)cc2s1 [Number 62] | 27 | 0.7
CC(C)[C@@H](NS(=O)(=O)c1ccc2nc(SCC3CCCCC3)sc2c1)C(=O)O [Number 63] | 202 | 9.3
CC(C)[C@@H](NS(=O)(=O)c1ccc2nc(SCCCC3CCCCC3)sc2c1)C(=O)NO [Number 66] | 5.8 | 0.7
CC(C)[C@@H](NS(=O)(=O)c1ccc2nc(SC3CCCC3)sc2c1)C(=O)O [Number 67] | 8250 | 690
CC(C)[C@@H](NS(=O)(=O)c1ccc2nc(SCc3ccccc3)sc2c1)C(=O)NO [Number 70] | 0.7 | 0.7
CC(C)[C@@H](NS(=O)(=O)c1ccc2nc(SCc3ccc(Cl)cc3)sc2c1)C(=O)O [Number 71] | 79 | 40
COc1ccc(CSc2nc3ccc(S(=O)(=O)N[C@@H](C(=O)O)C(C)C)cc3s2)cc1 [Number 73] | 420 | 36
COc1ccc(CSc2nc3ccc(S(=O)(=O)N[C@@H](C(=O)NO)C(C)C)cc3s2)cc1 [Number 74] | 0.2 | 0.8
CC(C)[C@@H](NS(=O)(=O)c1ccc2nc(SCCCc3ccccc3)sc2c1)C(=O)O [Number 75] | 3190 | 1120
CC(C)[C@@H](NS(=O)(=O)c1ccc2nc(SCCCc3ccccc3)sc2c1)C(=O)NO [Number 76] | 34 | 10.7
CC(C)[C@@H](NS(=O)(=O)c1ccc2nc(Sc3ccccc3)sc2c1)C(=O)O [Number 77] | 1880 | 410
CC(C)[C@@H](NS(=O)(=O)c1ccc2nc(Sc3ccccc3)sc2c1)C(=O)NO [Number 78] | 2.3 | 0.6
Cc1ccc(Sc2nc3ccc(S(=O)(=O)N[C@@H](C(=O)O)C(C)C)cc3s2)cc1 [Number 79] | 1710 | 250
Cc1ccc(Sc2nc3ccc(S(=O)(=O)N[C@@H](C(=O)NO)C(C)C)cc3s2)cc1 [Number 80] | 2 | 0.74
CC(C)[C@@H](NS(=O)(=O)c1ccc2nc(Sc3ccc(Br)cc3)sc2c1)C(=O)O [Number 81] | 930 | 320
